Test results from patent US9381191B2, “Imidazopyridine derivatives useful in treating diabetes” (METABRAIN RESEARCH, priority 2012, dated 2016).

Legend:
isolated rat hepatocytes = assay: Hepatic production of glucose, 3 h incubation; format: cell-based, Wistar rat; conditions: for activity at 50 µM / activity at 100 µM: Hepatocyte, rat hepatocytes; for activity at 50 µM: read-out: HGP % of ctrl @ 50 μM; for activity at 100 µM: read-out: HGP % of ctrl @ 100 μM
Procedure: The hepatocytes are isolated from Wistar rat liver having fasted for 24 h after perfusion of collagenase in the portal vein. 1) The freshly isolated hepatocytes are sown in 6-well plates coated with collagen and containing an adhesion medium (Williams Medium). After adhesion, the medium is replaced with RPMI 1640 medium without any glucose, containing hydrocortisone (7·10^−5M) for a duration from 16 to 18 h. The next day, the glucose hepatic production test is conducted in a Krebs medium for 3 h. The basal conditions are cells incubated with only Krebs, the stimulated conditions are the cells placed in Krebs+lactate+pyruvate, the produced conditions are the cells exposed to chemical compounds in a Krebs/lactate/pyruvate medium. In the case when the compounds are dissolved in DMSO, all the conditions of the tests are met in the presence of a final concentration of 0.1% DMSO. The positive control of the test is the mercaptopicolinate known for its inhibitory action on hepatic production of glucose via the phosphoenolpyruvate carboxykinase. For short term treatments, the compounds are incubated for 3 h. For long term treatments, the compounds are incubated for 20 h at the moment when the hepatocytes are cultivated in RPMI and then added during the hepatic production test for 3 h. At the end of the 3 hours of incubation, the supernatant is recovered for measurement of glucose with a colorimetric method using glucose oxidase. The cells are lysed with a 0.1% NaOH aqueous solution in order to measure the amount of protein with the Lowry method. The results are expressed in mmol of glucose per mg of protein.

INS-1 cells = assay: Stimulation test of insulin secretion by INS-1 cells; format: cell-based; conditions: Rattus norvegicus, INS1, 1 h, insulin secretion by INS-1 cells in response to glucose; for insulin secretion, % of control at 10 µM: read-out: HGP % of ctrl @ 10 μM; for insulin secretion, % of control at 50 µM: read-out: HGP % of ctrl @ 50 μM
Procedure: The different compounds were tested on an INS-1 beta-pancreatic line in order to evaluate their capability of potentializing the insulin secretion in response to glucose. Very briefly, the cells are cultivated in a culture medium, RPMI 1640 with 10 mM glucose containing 1 mM of sodium pyruvate, 50 μM of 2-mercaptoethanol, 2 mM of glutamine, 10 mM of HEPES, 100 IU/ml of penicillin, 100 μg/ml of streptomycin and 10% of inactivated fetal calf serum, as described by Asfari et al.. For the insulin secretion test, the INS-1 cells are sown and cultivated in 96-well plates. After 3 days of cultivation at 37° C. in a humid atmosphere (95% air/5% CO2), the medium is removed and the cells are incubated for 16 h in a medium containing 5 mM of glucose and 1% of inactivated fetal calf serum. On the day of the test, the cells are washed with a Krebs buffer (pH 7.4) containing 0.1% of bovine albumin and then pre-incubated for 30 min at 37° C. in this same buffer containing 2.8 mM of glucose. Finally, the cells are again washed with Krebs buffer and then incubated for 1 h in the buffer of the secretion test (Krebs, pH 7.4 containing 0.1% of bovine albumin and 3.5 mM of glucose and molecules to be evaluated). At the end of the test, the cell supernatant is recovered in order to measure therein the secreted insulin, by means of an ELISA kit using a rat anti-insulin antibody (ELISA Alpco Cat no. 80-INSRTH-E10). Each condition is tested in triplicate. The 3.5 mM glucose, the 10^−7M GLP-1 and the Forskoline 10^−7/IBMX 10^−5M mixtures are used as positive controls of the test. A compound stimulates the secretion of insulin if this factor is greater than or equal to 130% of the control for a given glucose dose.

O=C(CSCc1nc2ccccn2c1C#Cc1cccc(OC(F)(F)F)c1)Nc1cccnc1 [Derivative 126, N-(3-pyridyl)-2-[[3-[2-[3-(trifluoromethoxy)phenyl]ethynyl]imidazo[1,2-a]pyridin-2-yl]methylsulfanyl]acetamide]
activity at 50 µM (isolated rat hepatocytes): 72%
activity at 100 µM (isolated rat hepatocytes): 68%

O=C(O)CSCc1nc2ccc(Cl)cn2c1C#Cc1cccc(OC(F)(F)F)c1 [Derivative 119, 2-[[6-chloro-3-[2-[3-(trifluoro-methoxy)phenyl]ethynyl]imidazo [1,2-a]pyridin-2-yl]methyl-sulfanyl]acetic acid]
activity at 50 µM (isolated rat hepatocytes): 73%

COc1cccc(C#Cc2c(COCC(=O)O)nc3ccccn23)c1 [Derivative 30, 2-((3-((3-methoxyphenyl)ethynyl)-imidazo[1,2-a]pyridin-2-yl)methoxy)acetic acid]
activity at 50 µM (isolated rat hepatocytes): 74%
activity at 100 µM (isolated rat hepatocytes): 60%

CN(C)CCNC(=O)COCc1nc2ccccn2c1C#Cc1cccc(C(F)(F)F)c1 [Derivative 55, N-(2-(dimethylamino)ethyl)-2-((3-((3-(trifluoromethyl)-phenyl)ethynyl)imidazo[1,2-a]-pyridin-2-yl)methoxy)acetamide]
insulin secretion, % of control at 10 µM (INS-1 cells): 130%
insulin secretion, % of control at 50 µM (INS-1 cells): 135%

OCCSCc1nc2ccc(Cl)cn2c1C#Cc1cccc(C(F)(F)F)c1 [Derivative 131, 2-[[6-chloro-3-[2-[3-(trifluoromethyl)phenyl]ethynyl]imidazo[1,2-a]pyridin-2-yl]methylsulfanyl]ethanol]
insulin secretion, % of control at 10 µM (INS-1 cells): 131%

O=C([O-])COCc1nc2ccccn2c1C#Cc1cccc(C(F)(F)F)c1.[Na+] [Derivative 51, sodium 2-((3-((3-(trifluoromethyl)-phenyl)ethynyl)imidazo[1,2-a]pyridin-2-yl)methoxy)acetate]
activity at 50 µM (isolated rat hepatocytes): 61%
activity at 100 µM (isolated rat hepatocytes): 45%
inhibition of hepatic production of glucose (isolated rat hepatocytes; dose of 100 μM): strongest inhibitions

O=C(O)CSCc1nc2ccccn2c1C#Cc1cccc(OC(F)(F)F)c1 [Derivative 116, 2-[[3-[2-[3-(trifluoromethoxy)-phenyl]ethynyl]imidazo[1,2-a]pyridin-2-yl]methylsulfanyl] acetic acid]
activity at 50 µM (isolated rat hepatocytes): 88%
activity at 100 µM (isolated rat hepatocytes): 64%

O=C(O)CSCc1nc2ccccn2c1C#Cc1cccc(C(F)(F)F)c1 [Derivative 115, 2-[[3-[2-[3-(trifluoromethyl)phenyl]-ethynyl]imidazo[1,2-a]pyridin-2-yl]methylsulfanyl]acetic acid]
activity at 50 µM (isolated rat hepatocytes): 94%
activity at 100 µM (isolated rat hepatocytes): 54%
inhibition of hepatic production of glucose (isolated rat hepatocytes; dose of 100 μM): strongest inhibitions

O=C(O)c1ccc(OCc2nc3ccccn3c2C#Cc2cccc(C(F)(F)F)c2)cc1 [Derivative 90, 4-((3-((3-(trifluoromethyl)phenyl)-ethynyl)imidazo[1,2-a]pyridin-2-yl)methoxy)benzoic acid]
activity at 50 µM (isolated rat hepatocytes): 77%
activity at 100 µM (isolated rat hepatocytes): 27%
inhibition of hepatic production of glucose (isolated rat hepatocytes; dose of 100 μM): strongest inhibitions

O=C(NO)c1ccccc1OCc1nc2ccccn2c1C#Cc1ccc(F)cc1 [Derivative 96, 2-((3-((4-fluorophenyl)ethynyl)-imidazo[1,2-a]pyridin-2-yl)-methoxy)-N-hydroxybenzamide]
activity at 50 µM (isolated rat hepatocytes): 81%
activity at 100 µM (isolated rat hepatocytes): 66%

O=C(O)c1ccccc1OCc1nc2ccccn2c1C#Cc1cccc(C(F)(F)F)c1 [Derivative 89, 2-((3-((3-(trifluoromethyl)phenyl)-ethynyl)imidazo[1,2-a]pyridin-2-yl)methoxy)benzoic acid]
activity at 50 µM (isolated rat hepatocytes): 78%
activity at 100 µM (isolated rat hepatocytes): 33%
inhibition of hepatic production of glucose (isolated rat hepatocytes; dose of 100 μM): strongest inhibitions

CC(C)(CO)C(OCc1nc2ccccn2c1C#Cc1cccc(C(F)(F)F)c1)C(=O)O (stereo not drawn) [Derivative 129, 4-hydroxy-3,3-dimethyl-2-[[3-[2-[3-(trifluoromethyl)phenyl]ethynyl]imidazo[1,2-a]pyridin-2-yl]methoxy]butanoic acid]
insulin secretion, % of control at 10 µM (INS-1 cells): 109%
insulin secretion, % of control at 50 µM (INS-1 cells): 146%

CCOC(=O)COCc1nc2ccccn2c1C#Cc1ccc(OC)cc1 [Derivative 4, ethyl 2-((3-((4-methoxyphenyl)-ethynyl)-imidazo[1,2-a]pyridin-2-yl)-methoxy)acetate]
activity at 50 µM (isolated rat hepatocytes): 81%
activity at 100 µM (isolated rat hepatocytes): 74%

CCOC(=O)CSCc1nc2ccccn2c1C#Cc1cccc(C(F)(F)F)c1 [Derivative 108, ethyl 2-[[3-[2-[3-(trifluoromethyl)-phenyl]ethynyl]imidazo[1,2-a]pyridin-2-yl]methylsulfanyl]acetate]
activity at 50 µM (isolated rat hepatocytes): 89%
activity at 100 µM (isolated rat hepatocytes): 64%

O=C(O)COCc1nc2ccccn2c1C#Cc1cccc(OC(F)F)c1 [Derivative 35, 2-((3-((3-(difluoromethoxy)phenyl)-ethynyl)imidazo[1,2-a]pyridin-2-yl)methoxy)acetic acid]
activity at 50 µM (isolated rat hepatocytes): 73%
activity at 100 µM (isolated rat hepatocytes): 64%

CCOC(=O)COCc1nc2ccccn2c1C#Cc1cccc(F)c1 [Derivative 23, ethyl 2-((3-((3-fluorophenyl)-ethynyl)imidazo[1,2-a]pyridin-2-yl)methoxy)acetate]
activity at 50 µM (isolated rat hepatocytes): 95%
activity at 100 µM (isolated rat hepatocytes): 73%

O=C(O)COCc1nc2ccccn2c1C#Cc1cccc(OC(F)(F)F)c1 [Derivative 29, 2-((3-((3-(trifluoromethoxy)phenyl)-ethynyl)imidazo[1,2-a]pyridin-2-yl)methoxy)acetic acid]
activity at 50 µM (isolated rat hepatocytes): 63%
activity at 100 µM (isolated rat hepatocytes): 40%
inhibition of hepatic production of glucose (isolated rat hepatocytes; dose of 100 μM): strongest inhibitions

CCOC(=O)COCc1nc2ccccn2c1C#Cc1cccc(C(F)(F)F)c1 [Derivative 7, ethyl 2-((3-((3-(trifluoromethyl)-phenyl)ethynyl)imidazo[1,2-a]pyridin-2-yl)methoxy)acetate]
activity at 50 µM (isolated rat hepatocytes): 55%
activity at 100 µM (isolated rat hepatocytes): 45%
inhibition of hepatic production of glucose (isolated rat hepatocytes; with two doses): strongest inhibitions

O=C(O)c1cccc(OCc2nc3ccccn3c2C#Cc2ccccc2)c1 [Derivative 93, 3-((3-(phenylethynyl)imidazo[1,2-a]pyridin-2-yl)methoxy) benzoic acid]
activity at 50 µM (isolated rat hepatocytes): 26%
activity at 100 µM (isolated rat hepatocytes): 19%
inhibition of hepatic production of glucose (isolated rat hepatocytes; with two doses): strongest inhibitions

CC1(C)COC(=O)C1OCc1nc2ccccn2c1C#Cc1cccc(C(F)(F)F)c1 (stereo not drawn) [Derivative 99, 4,4-dimethyl-3-[[3-[2-[3-(trifluoromethyl)phenyl]ethynyl]imidazo[1,2-a]pyridin-2-yl]methoxy]-tetrahydrofuran-2-one]
activity at 50 µM (isolated rat hepatocytes): 85%
activity at 100 µM (isolated rat hepatocytes): 68%

COC(=O)c1ccccc1OCc1nc2ccccn2c1C#Cc1cccc(C(F)(F)F)c1 [Derivative 77, methyl 2-((3-((3-(trifluoromethyl)-phenyl)ethynyl)imidazo[1,2-a]pyridin-2-yl)methoxy)benzoate]
activity at 50 µM (isolated rat hepatocytes): 87%
activity at 100 µM (isolated rat hepatocytes): 50%
inhibition of hepatic production of glucose (isolated rat hepatocytes; dose of 100 μM): strongest inhibitions

CCOC(=O)CSCc1nc2ccccn2c1C#Cc1cccc(OC(F)(F)F)c1 [Derivative 109, ethyl 2-[[3-[2-[3-(trifluoromethoxy)-phenyl]ethynyl]imidazo[1,2-a]pyridin-2-yl]methylsulfanyl]acetate]
activity at 50 µM (isolated rat hepatocytes): 80%
activity at 100 µM (isolated rat hepatocytes): 61%

CCOC(=O)COCc1nc2ccccn2c1C#Cc1ccc(F)c(F)c1 [Derivative 10, ethyl 2-((3-((3,4-difluorophenyl)-ethynyl)imidazo[1,2-a]pyridin-2-yl)methoxy)acetate]
activity at 50 µM (isolated rat hepatocytes): 86%
activity at 100 µM (isolated rat hepatocytes): 71%

CN(C)CCNC(=O)c1ccccc1OCc1nc2ccccn2c1C#Cc1ccc(F)cc1 [Derivative 95, N-(2-(dimethylamino)ethyl)-2-((3-((4-fluorophenyl)ethynyl)-imidazo[1,2-a]pyridin-2-yl)methoxy)benzamide]
activity at 50 µM (isolated rat hepatocytes): 65%
activity at 100 µM (isolated rat hepatocytes): 62%
